Measured values: patent US11344510B2, “Arylcyclohexylamine derivatives and their use in the treatment of psychiatric disorders” (Gilgamesh Pharmaceuticals, Inc., priority 2019, dated 2022)
Entries after “also recorded” stand apart in the source; their conditions may differ.

Tests used:
[1] = tested on: T1, monoamine transporters, MATs (SERT, NET, DAT, VMAT2); test: Monoamine uptake inhibition, monoamine transporters collectively; assay type: cell-based; conditions: uptake inhibition
T1 construct: rows headed: activity at MATs; stably transfected cells expressing the MAT of interest (HEK293 cells for SERT and NET)
Experimental: The ability of the compounds of the present invention to inhibit uptake of monoamines by the serotonin transporter (SERT), norepinephrine transporter (NET), dopamine transporter (DAT), and vesicular monoamine transporter 2 (VMAT2) (collectively monoamine transporters, MATs) was measured using fluorescent substrate uptake assays in transfected cells (Table 14). The binding affinities of select compounds were also determined in radioligand displacement assays at SERT, NET, and/or DAT (Table 14).
Uptake Inhibition. The ability of test compounds to block monoamine uptake by SERT, NET, DAT, and VMAT2 was determined using the Neurotransmitter Transporter Uptake Assay Kit manufactured by Molecular Devices (Cat #R8173). Briefly, stably transfected cells expressing the MAT of interest (HEK293 cells for SERT and NET; CHO cells for DAT) were grown and plated into 384-well plates at a concentration of 20,000 cells per well. Plates were then incubated for 16-20 h at 37° C. and 5% CO2. The medium was then aspirated and replaced with 25 μL of assay buffer (20 mM HEPES in HBSS, containing 0.1% BSA) containing the test compounds at the appropriate concentrations. Plates were then centrifuged at 300 rpm for 15 s and then incubated at 37° C. for 30 minutes. At this time, 25 μL of the proprietary fluorescent dye solution was added, the plates were incubated at 37° C. for 60 minutes, and then fluorescence was quantified on a plate reader (excitation wavelength=440 nm, emission wavelength=520 nm). The proprietary dye solution contains a mixture of 1) a fluorescent dye that mimics the endogenous substrates of MATs and is thereby actively transported to the intracellular compartment in the absence of an inhibitor and 2) a masking dye that inhibits the fluorescence of dye 1 in the extracellular compartment. Therefore, the overall fluorescence of the system increases as the fluorescent dye is transported into the cells.

[2] = MLM stability (High Activity); assay type: in vitro ADME, BALB/c mice; conditions: male, BALB/c, mouse, liver microsomes, pH 7.4, Condition 2 (High Activity), 1.0 mg protein/mL
Procedure, shortened: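 Pooled male BALB/c mouse liver microsomes (1.0 mg/mL) in 100 mM PBS pH 7.4 with NADPH-regenerating system; compound 1 μM, 37 °C, five time points over 60 min, duplicate; NADPH-free controls. Parent remaining by LC-MS/MS; kel, t1/2 and Clint from linear regression of ln(AUC) versus time.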

[3] = RLM stability (High Activity); assay type: in vitro ADME, Sprague Dawley rats
Experimental: (§1) RLM Stability (High Activity). Pooled RLM from male Sprague Dawley rats (XenoTech R1000, lot #1910100) were used. Microsomal incubations were carried out in 96-well plates in 5 aliquots of 40 μL each (one for each time point). Liver microsomal incubation medium consisted of PBS (100 mM, pH 7.4), MgCl2 (3.3 mM), NADPH (3 mM), glucose-6-phosphate (5.3 mM), and glucose-6-phosphate dehydrogenase (0.67 units/mL), with 1.0 mg of liver microsomal protein per mL. Control incubations were performed by replacing the NADPH-cofactor system with PBS. Test compounds (1 μM, final solvent concentration 1.6%) were incubated with microsomes at 37° C., shaking at 100 rpm. Incubations were performed in duplicate. Five time points over 60 minutes were analyzed. The reactions were stopped by adding 9 volumes of 90% acetonitrile-water to incubation aliquots, followed by protein sedimentation by centrifugation at 5500 rpm for 3 minutes. Supernatants were analyzed for parent compound remaining using a fit-for-purpose liquid chromatography-tandem mass spectrometry (LC-MS/MS) method, with authentic samples of each analyte used for identity confirmation.
Data Analysis. The elimination constant (kel), half-life (t1/2) and intrinsic clearance (Clint) were determined in a plot of […] versus time, using linear regression analysis.

[4] = target: T2, serotonin transporter (SERT) (Homo sapiens, UniProt P31645); test: Fluorescent substrate uptake inhibition, SERT; assay type: cell-based; conditions: 10 μM, HEK293 cells expressing SERT
T2 construct: expressed in transfected cells; host or cells: HEK293
T2 sequence (P31645 whole entry, species assumed): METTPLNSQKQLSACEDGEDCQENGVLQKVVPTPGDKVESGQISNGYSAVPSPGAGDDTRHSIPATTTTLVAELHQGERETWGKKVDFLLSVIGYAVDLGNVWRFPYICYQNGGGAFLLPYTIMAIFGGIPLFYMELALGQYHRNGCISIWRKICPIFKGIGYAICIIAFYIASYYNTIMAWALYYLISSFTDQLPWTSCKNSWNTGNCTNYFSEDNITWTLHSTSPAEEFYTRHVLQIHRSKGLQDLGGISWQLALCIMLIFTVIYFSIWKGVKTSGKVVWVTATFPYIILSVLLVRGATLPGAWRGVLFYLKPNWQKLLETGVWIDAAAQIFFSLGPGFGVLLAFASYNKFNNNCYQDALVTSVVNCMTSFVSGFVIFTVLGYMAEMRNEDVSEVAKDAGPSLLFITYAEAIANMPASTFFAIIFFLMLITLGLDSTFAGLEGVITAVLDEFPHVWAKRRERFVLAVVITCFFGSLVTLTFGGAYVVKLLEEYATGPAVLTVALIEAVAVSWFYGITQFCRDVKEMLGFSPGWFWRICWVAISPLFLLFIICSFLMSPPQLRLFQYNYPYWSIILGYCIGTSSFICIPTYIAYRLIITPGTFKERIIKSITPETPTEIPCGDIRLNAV

[5] = target: T3, dopamine transporter (DAT) (Homo sapiens, UniProt Q01959); test: Fluorescent substrate uptake inhibition, DAT; assay type: cell-based; conditions: 10 μM, CHO cells expressing DAT
T3 construct: expressed in transfected cells; host or cells: CHO (uptake)
T3 sequence (Q01959 whole entry, species assumed): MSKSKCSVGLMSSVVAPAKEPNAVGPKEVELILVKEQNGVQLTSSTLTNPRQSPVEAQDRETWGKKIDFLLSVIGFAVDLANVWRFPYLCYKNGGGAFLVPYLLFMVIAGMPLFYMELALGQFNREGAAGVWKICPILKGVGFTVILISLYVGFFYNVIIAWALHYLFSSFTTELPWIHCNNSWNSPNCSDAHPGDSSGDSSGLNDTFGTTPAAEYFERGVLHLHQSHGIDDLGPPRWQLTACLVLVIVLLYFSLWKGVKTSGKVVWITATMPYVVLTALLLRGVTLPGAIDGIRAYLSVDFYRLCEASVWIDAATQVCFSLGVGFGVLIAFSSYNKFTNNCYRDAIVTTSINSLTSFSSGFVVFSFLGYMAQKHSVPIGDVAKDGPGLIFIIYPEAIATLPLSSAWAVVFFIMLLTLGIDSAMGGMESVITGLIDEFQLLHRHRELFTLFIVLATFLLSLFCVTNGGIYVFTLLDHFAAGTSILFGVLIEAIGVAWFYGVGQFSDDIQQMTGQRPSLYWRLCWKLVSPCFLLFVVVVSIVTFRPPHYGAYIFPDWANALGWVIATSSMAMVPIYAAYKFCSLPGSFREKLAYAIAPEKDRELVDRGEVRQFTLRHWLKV

[6] = target: T4, norepinephrine transporter (NET) (Homo sapiens, UniProt P23975); test: Fluorescent substrate uptake inhibition, NET; assay type: cell-based; conditions: 10 μM, HEK293 cells expressing NET
T4 construct: expressed in transfected cells; host or cells: HEK293
T4 sequence (P23975 whole entry, species assumed): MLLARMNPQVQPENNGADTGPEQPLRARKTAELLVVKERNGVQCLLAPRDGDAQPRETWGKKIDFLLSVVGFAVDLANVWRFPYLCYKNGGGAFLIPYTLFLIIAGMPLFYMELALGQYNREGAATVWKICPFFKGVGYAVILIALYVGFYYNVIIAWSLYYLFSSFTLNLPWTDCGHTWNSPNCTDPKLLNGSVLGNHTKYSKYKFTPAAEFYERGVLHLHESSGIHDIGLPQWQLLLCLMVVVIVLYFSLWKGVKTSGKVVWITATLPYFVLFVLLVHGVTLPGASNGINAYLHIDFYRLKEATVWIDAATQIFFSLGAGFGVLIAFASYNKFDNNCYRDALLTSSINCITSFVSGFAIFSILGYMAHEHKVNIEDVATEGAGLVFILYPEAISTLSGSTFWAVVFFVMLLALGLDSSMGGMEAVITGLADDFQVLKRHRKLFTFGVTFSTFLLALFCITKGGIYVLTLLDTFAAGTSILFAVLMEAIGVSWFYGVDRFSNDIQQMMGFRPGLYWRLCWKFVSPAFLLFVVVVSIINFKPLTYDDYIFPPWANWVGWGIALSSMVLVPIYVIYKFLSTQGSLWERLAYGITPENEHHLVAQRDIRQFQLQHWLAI

[7] = target: MK-801 binding site of the N-methyl-D-aspartate receptor (NMDAR); test: NMDAR radioligand binding with [3H]MK-801, Method B; parameters: species or system Sprague Dawley rat; conditions: MK-801 site, Method B, male Sprague Dawley rat cortex, 5.0 nM [3H]MK-801; read-out: NMDAR Ki ± SEM
Experimental: Radioligand Binding—Method B. Affinity of the test compounds for NMDAR was determined in radioligand binding experiments with [^3H]MK-801 by WuXi AppTec (Hong Kong) Limited, under the conditions described in Table 13.

[8] = Formation of metabolites 11R/11S in RLM (High Activity conditions); assay type: in vitro ADME, Sprague Dawley rats; conditions: LC-MS/MS
Experimental: as §1, with “The reactions were stopped by adding 9 volumes of 90% acetonitrile-water to incubation aliquots, followed by protein sedimentation by centrifugation at 5500 rpm for 3 minutes.” left out
This condition was also used for experiments measuring the formation of metabolite 11R from compounds 14R and 88R and formation of metabolite 11S from compounds 14S and 88S. The concentrations of 11R and 11S formed during the incubations were quantified using a fit-for-purpose liquid chromatography-tandem mass spectrometry (LC-MS/MS) method, with authentic samples of each analyte used for calibration and identity confirmation.

[9] = HLM stability (High Activity); assay type: in vitro ADME; conditions: both sexes, human, liver microsomes, pH 7.4, Condition 2 (High Activity), 1.0 mg protein/mL
Procedure, shortened: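 Pooled male and female human liver microsomes, 1.0 mg protein/mL, in 100 mM PBS pH 7.4 with NADPH-regenerating system; compound 1 μM at 37° C, five time points over 60 min. Parent remaining by LC-MS/MS; kel, t1/2 and Clint from linear regression of ln(AUC) versus time.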

[10] = target: T5, vesicular monoamine transporter 2 (VMAT2) (Homo sapiens, UniProt Q05940); test: Fluorescent substrate uptake inhibition, VMAT2; assay type: cell-based; conditions: 10 μM, transfected cells
T5 construct: expressed in transfected cells
T5 sequence (Q05940 whole entry, species assumed): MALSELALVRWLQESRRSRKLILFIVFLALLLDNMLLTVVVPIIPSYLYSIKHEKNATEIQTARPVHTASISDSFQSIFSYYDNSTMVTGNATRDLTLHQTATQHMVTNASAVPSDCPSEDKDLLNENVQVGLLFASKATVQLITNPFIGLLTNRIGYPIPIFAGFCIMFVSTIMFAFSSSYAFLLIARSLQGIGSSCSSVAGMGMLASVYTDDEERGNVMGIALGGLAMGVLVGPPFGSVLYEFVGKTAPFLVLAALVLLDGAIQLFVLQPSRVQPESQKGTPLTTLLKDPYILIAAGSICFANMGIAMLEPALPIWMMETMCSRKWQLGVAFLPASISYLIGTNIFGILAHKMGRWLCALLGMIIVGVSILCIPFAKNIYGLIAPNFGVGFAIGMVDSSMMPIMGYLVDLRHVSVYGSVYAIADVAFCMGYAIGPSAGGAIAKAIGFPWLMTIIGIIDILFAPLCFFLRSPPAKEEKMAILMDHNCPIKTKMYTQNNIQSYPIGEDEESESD

[11] = male, Sprague Dawley, rat, liver microsomes, pH 7.4, Condition 2 (High Activity), 1 μM, 1.0 mg protein/mL

| Compound | activity at MATs [1] | half-life at 1 μM [2] [h] | microsomal CLint at 1 μM [2] [µL/min/mg] | metabolic stability compared to non-deuterated counterparts 14R and 14S ([3]; High Activity) | half-life at 1 μM [3, 11] [h] | microsomal CLint at 1 μM [3, 11] [µL/min/mg] | inhibition at 10 µM [4] [%] | inhibition at 10 µM [5] [%] | inhibition at 10 µM [6] [%] | Ki [7] [nM] | formation of metabolites 11R and 11S compared to non-deuterated counterparts [8] | half-life at 1 μM [9] [h] | microsomal CLint at 1 μM [9] [µL/min/mg] | inhibition at 10 µM [10] [%] |
| --- | --- | --- | --- | --- | --- | --- | --- | --- | --- | --- | --- | --- | --- | --- |
| O=C1CCCCC1(c1ccccc1)N1CCOCC1 (centres unmarked) [Compound 31] | almost no activity |  |  |  |  |  |  |  |  |  |  |  |  |  |
| [2H]C([2H])([2H])N[C@]1(c2ccccc2)CCCCC1=O [Compound 88S, (S)-2-((methyl-d3)amino)-2-phenylcyclohexan-1-one] |  | 1.86 | 6 | increased metabolic stability | 0.88 | 13 | 28.2 | 18.6 | 21.6 | 800 | attenuated formation; also recorded: decreased formation | 2.78 | 4 | -6 |
